# Measured values published in paper PMC9490316, “Covalent fragment inhibits intramembrane proteolysis” (Frontiers in Molecular Biosciences, 2022).
# Target: T1, transmembrane domain of amyloid precursor protein (APPTM) (Homo sapiens, UniProt P05067)
# T1 construct: gene APP; APPTM, transmembrane domain of amyloid precursor protein (5,590 Da, 15N labeled, in DPC micelles)
# Assay: 2D 1H-15N TROSY NMR and MALDI-TOF-MS (covalent adducts, up to six additions); the IC50 is from a gel-based assay of APPTM cleavage by PSH
# Format: biochemical
# T1 sequence (P05067 686-726 limits assumed): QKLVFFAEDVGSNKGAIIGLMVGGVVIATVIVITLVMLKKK
structure (smiles),measurement,value
Oc1ccc(O)c2c1C1CCC2C1 [6H8],IC50,2 to 4 µM
